Assay type in all cases: cell-based, human
One test has as its system c-Myc. The experiment in a line: Nuclear protein western blot, c-Myc. The settings on record: 10 μM, 2 days. The method, then:
(§1) HepG2 cells were seeded into a 6-well plate at 400,000 cells per well. After treatment with 10 μM of JNK-IN-5A and its derivatives for two days, lysates were harvested with CelLytic M (C2978, Sigma-Aldrich). 20 μg lysate was prepared with 2× Laemmli Sample Buffer (1610737, Biorad). SDS PAGE were performed using Mini-PROTEAN® TGX™ Precast Gels (Bio-Rad) and transferred using Trans-Blot® Turbo™ Transfer System (Bio-Rad). Primary antibody, PARP (95425, Cell signalling), Caspase 3 (ab32042, abcam), Bcl-2 (ab182858), STAT1 (HPA000982, Merk), PKL (06653, Sigma), PKM (4053S, Cell signalling), GAPDH (ab8245, abcam), P53 (ab32389, abcam), p21 (ab109199, abcam), p-S349 p62 (ab211324, abcam), p62 (ab109012, abcam), c-Myc (ab32072, abcam), GPX4 (ab125066, abcam), MMP9 (MA5-32705, Invitrogen), β-actin (ab8227, abcam), and α-tubulin (ab7291, abcam) were blotted overnight and Goat Anti-Rabbit HRP (ab205718) and goat anti-mouse IgG-HRP (sc2005, Santa Cruz Biotechnology, Inc.) were blotted for secondary antibody for one hour. ImageQuantTMLAS 500 (29-0050-63, GE) was used to detect protein bands.

Test [1] relates to HepG2 cells. The experiment in a line: LDH cytotoxicity assay, time dependent. The note with it: 10 μM, up to 4 days. The method, then: HepG2 cells were maintained and used with RPMI 1640 (R2405, Sigma-Aldrich) supplemented with 10% fetal bovine serum (F7524, Sigma-Aldrich), 1% P/S (P4333, Sigma-Aldrich). 20,000 cells per well of HepG2 cells were seeded into a 96-well plate and triplicated for MTT assay and LDH assay. Cell viability was measured by MTT assay (M6494, ThermoFisher) and cytotoxicity was measured by LDH assay kit (ab65393, abcam) by following manufacturer's instructions. Optical density (O.D) was numerated using a microplate reader (Hidex Sense Meta Plus).

Test [2] has as its system HepG2 cells. Kind of test: DAPI and PI staining for necrotic cell death. The settings on record: 10 μM, 2 days. The method, then:
HepG2 cells were treated with 10 μM of the JNK-IN-5A derivatives for 2 days and cells were stained with DAPI (Blue) and PI (Red) for 30 min, at live cells. PI positive necrotic cells were counted and plotted.

The next test deals with PARP. Kind of test: Western blot, cleaved PARP. The settings on record: 10 μM, 2 days. The method, then: as §1
For orientation: A western blot detects proteins with antibodies after separation by electrophoresis.

The subject of the next test is Caspase 3. Kind of test: Western blot, active caspase 3. The settings on record: 10 μM, 2 days. The method, then: as §1
The next test deals with p53. Kind of test: Nuclear protein western blot, p53. The note with it: 10 μM, 2 days; compared to sorafenib and regorafenib. The method, then: as §1
The test system of the next test is GPX4. The experiment in a line: Western blot, GPX4. The note with it: compared to the control. The method, then: as §1
The subject of test [3] is HepG2 cells. Kind of test: RNA sequencing, GSEA and PROGENy pathway analysis. The method, then:
RNA samples for RNA sequencing were extracted with RNeasy Plus Mini Kit (74134, QIAGEN). RIN score of total RNA samples was measured using RNA 6000 Nano kit (5067-1511, Agilent). 2100 Bioanalyzer Instrument (G2939BA, Agilent) was used for RIN score test using electrophoresis. Samples with a […] were submitted to SZA Omics, Istanbul for RNA sequencing analysis.
The quality, quantity, and RNA integrity number (RIN) of the samples were assessed with NanoDrop (Thermo Fisher, USA), and Bioanalyzer (2100, Agilent Technology, USA). For the RNA samples, the ratio of absorbance at 260 and 280 nm (A260/280) of […], A260/230 of 2.0-2.2, and RIN>8.0 are acceptable. All samples passed the quality control.
The Illumina Stranded Total RNA Prep, Ligation with Ribo-Zero Plus kit was used for the construction of NGS libraries from the samples with acceptable quality parameters. In short, RNA samples were sequenced with 2×100 paired-end reads by the NovaSeq 6000 system. Raw sequencing data (.bcl) was demultiplexed and converted to FASTQ files with DRAGEN Software (v3.9.5). The data was delivered in FASTQ format using Illumina 1.8 quality scores.
The quality of FASTQ files was assessed by FastQC (v0.11.9) software to ensure the quality of every sequenced sample. Kallisto (v0.48.0)16 was used to quantify the count and transcripts per million (TPM) values of transcripts based on the Homo sapiens reference cDNA (version GRCh38, Ensembl release 110). The transcript read counts and TPM values were assembled to gene level using the R package tximport (v1.28.0), with only protein-coding transcripts and genes included. The lowly expressed genes with an average count below 5 were filtered out, resulting in a total of 14,592 genes for the downstream analysis.
Differential expression analysis was conducted using the R package DESeq2 (v1.40.2) followed by the Benjamini-Hochberg procedure to correct p-values. […]

Consider `N#Cc1c(NC(=O)c2cccc3ccccc23)sc2c1CCCC2` [JNK-IN-5A, N-(3-cyano-4,5,6,7-tetrahydrobenzo[b]thiophen-2-yl)-1-naphthamide], for which the “nuclear c-Myc expression” value in the test on c-Myc is recorded as “significantly reduced”.
In the case of `COc1ccc(C(=O)Nc2sc3c(c2C#N)CCCCC3)cc1OC` [PKL-A135, N-(3-cyano-5,6,7,8-tetrahydro-4H-cyclohepta[b]thiophen-2-yl)-3,4-dimethoxy-benzamide], in the test with HepG2 cells [1], the “necrotic cell death (LDH)” value is “pronounced necrotic cell death from day 1 to day 4”. Besides, in the test on HepG2 cells [2], the “necrotic cell death (PI staining)” value is given as “significantly induced necrotic cell death”. Moreover, the “increase in cleaved PARP vs untreated control” value in the test on PARP amounted to 78.31 times. In addition, in the test with Caspase 3, the “active caspase 3 levels” value is 11.85 times. Further, the “nuclear-localized p53” value in the test on p53 is recorded as “significant increase”. For the same compound, the GPX4 expression levels in the test with GPX4 stood at 0.58 times. In addition, in the test on HepG2 cells [3], the “inhibition of cell cycle-related pathways (E2F targets, G2M checkpoint), GSEA” value is “most potent inhibitor” and the “p53 pathways activity (PROGENy)” value is on record as “significantly activated”.
In the case of `N#Cc1c(NC(=O)c2cccc3ccccc23)sc2c1CCN(CC(=O)Nc1cccc(Br)c1)C2` [PKL-B171], in the test on HepG2 cells [1], the “necrotic cell death (LDH)” value is given as “pronounced late necrotic cell death from day 3 to 4”. For the same compound, the “necrotic cell death (PI staining)” value in the test with HepG2 cells [2] is recorded as “significantly induced necrotic cell death”. In addition, the “increase in cleaved PARP vs untreated control” value with PARP is 87.97 times. In addition, the “active caspase 3 levels” value in the test with Caspase 3 is recorded as 14.66 times. In addition, the “nuclear-localized p53” value with p53 was “significant increase”. Besides, the “nuclear c-Myc expression” value in the test on c-Myc was “most substantial decrease”. For the same compound, the GPX4 expression levels in the test with GPX4 turned out to be 0.88 times. Further, the “p53 pathways activity (PROGENy)” value with HepG2 cells [3] is “significantly activated”.

The values above are taken from patent US20260234159A1, “SMALL MOLECULE TREATMENT OF FATTY LIVER DISEASE AND HCC” (SCANDIEDGE THERAPEUTICS AB, priority 2023, published 2026).
